This is an account of results in publication PMC3401542 (Bioorganic & medicinal chemistry, 2012).

As a reminder, the IC50 is the concentration at which inhibition is half-maximal.

The target in assay [1] is neuraminidase of A/Uruguay/716/07 (H3N2) (Influenza A virus, UniProt I6VF55). It counts as biochemical. To be noted: read-out: Inhibition of Neuraminidase, IC50.
Assay [2] addresses neuraminidase of A/Brisbane/59/07 (H1N1) (Influenza A virus, UniProt D5F1R0). Nature of the assay: biochemical. It counts as biochemical.
In assay [3] the target is neuraminidase of A/Solomon Islands/3/06 (H1N1) (Influenza A virus, UniProt B4URD9). The assay is classed as biochemical. To be noted: read-out: Inhibition of Neuraminidase, IC50.
In assay [4] the target is neuraminidase of B/Malaysia/5206/04 (Influenza B virus, UniProt Q38G90). Nature of the assay: Neuraminidase inhibition, fluorogenic MUNANA substrate, purified intact virions. The assay is classed as biochemical. To be noted: read-out: Inhibition of Neuraminidase, IC50.
The next assay relates to N2 NAs. To be noted: read-out: inhibition (IC50) of N2 NAs; range over N2 NAs; ref [28]; cited from earlier work.
The subject of a further assay is type B NAs. To be noted: read-out: inhibition (IC50) of type B NAs; range over type B NAs; ref [28]; cited from earlier work.

Like-named read-outs stand apart in the source and are kept apart here. Where only a bound is given, the exact number is not on record here.

For “4-(2,2-Bis(hydroxymethyl)-3-((3-pentyloxy)methyl)-5-oxopyrrolidin-1-yl)benzoic Acid [Compound 10c]”, the IC50 amounted to 0.5 ± 0.1 µM in assay [1]; 1 ± 0.21 µM in assay [2] (read-out: Inhibition of Neuraminidase, IC50); 0.8 ± 0.07 µM in assay [3]; 30 ± 1.4 µM in assay [4]. Besides, in assay [2], the “improved N1 NA activity compared to the parent 3” value is 80–100 fold.

As for `CCC(CC)O[C@@H]1C=C(C(=O)O)C[C@H](N)[C@H]1NC(C)=O` [Compound 1c, oseltamivir carboxylate], the figures for the IC50 in the assay on N2 NAs and in the assay on type B NAs were 0.00068 to 0.00178 µM and 0.005 to 0.0243 µM, respectively.

The molecule `CC(C)OCc1cc(C(=O)O)ccc1N1C(=O)CCC1(CO)CO` [Compound 10a, 4-(2,2-Bis(hydroxymethyl)-5-oxopyrrolidin-1-yl)-3-(isopropoxymethyl)benzoic Acid] returned a 50% inhibitory concentration (IC50) in assay [2] of more than 10000 µM.

Turning to `CCC(C)OCc1cc(C(=O)O)ccc1N1C(=O)CCC1(CO)CO` (centres unmarked) [Compound 10b, 4-(2,2-Bis(hydroxymethyl)-5-oxopyrrolidin-1-yl)-3-(2-butoxymethyl)benzoic Acid], half-maximal inhibition in assay [2] (IC50) was put at 16 ± 2.1 µM.

Turning to `CCC(=Cc1cc(C(=O)O)ccc1N1C(=O)CCC1(CO)CO)CC` [Compound 13b, 4-(2,2-Bis (hydroxymethyl)-5-oxopyrrolidin-1-yl)-3-(2-ethylbut-1-enyl)benzoic Acid], in assay [2], inhibition was half-maximal at 2.4 ± 0.9 µM (IC50) and the “improved N1 NA activity compared to the parent 3” value was 30–40 fold.

Molecule `CC(C)Cc1cc(C(=O)O)ccc1N1C(=O)CCC1(CO)CO` [Compound 13c, 4-(2,2-Bis (hydroxymethyl)-5-oxopyrrolidin-1-yl)-3-isobutylbenzoic Acid] yielded an IC50 in assay [2] of 70 ± 7.8 µM.

`CCC(CC)Cc1cc(C(=O)O)ccc1N1C(=O)CCC1(CO)CO` [Compound 14b, 4-(2,2-Bis (hydroxymethyl)-5-oxopyrrolidin-1-yl)-3-(2-ethylbutyl)benzoic Acid]: in assay [2], the concentration for half-maximal inhibition (IC50) was determined as 1.6 ± 0.6 µM and the “improved N1 NA activity compared to the parent 3” value was 30–40 fold.
